Measurements taken from patent US5434154A, “Antimigraine 4-pyrimidinyl and pyridinyl derivatives of indol-3yl-alkylpiperazines” (Bristol-Myers Squibb Company, priority 1994, dated 1995).
Where a name gives a salt, the structure may show the parent alone.

How the values were obtained:
migraine = conditions: cited from earlier work
5-HT1D = molecular target: T1, 5-HT1D (Bos taurus, UniProt F1MGM3); assay: 5-HT1D binding (displacement of tritiated serotonin); conditions: in vitro, Table 2
T1 construct: methodology such as that described by Heuring and Peroutka, J. Neurosci., 7(3), 1987, 894-903; with only minor modifications; from tissue
T1 sequence (F1MGM3 1-403): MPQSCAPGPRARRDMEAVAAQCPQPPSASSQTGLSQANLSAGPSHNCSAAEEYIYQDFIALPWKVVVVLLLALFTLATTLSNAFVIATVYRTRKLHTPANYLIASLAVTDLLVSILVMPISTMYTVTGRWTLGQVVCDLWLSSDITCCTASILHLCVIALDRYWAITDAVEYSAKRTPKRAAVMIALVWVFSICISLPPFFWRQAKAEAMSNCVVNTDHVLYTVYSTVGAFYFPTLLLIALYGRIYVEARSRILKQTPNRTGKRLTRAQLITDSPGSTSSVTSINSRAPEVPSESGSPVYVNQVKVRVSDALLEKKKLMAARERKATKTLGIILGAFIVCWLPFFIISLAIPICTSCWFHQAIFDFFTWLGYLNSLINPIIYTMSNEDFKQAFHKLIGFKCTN
Description: Determination of 5-HT1D binding properties was accomplished employing methodology such as that described by Heuring and Peroutka, J. Neurosci., 7(3), 1987, 894-903; with only minor modifications. In vitro IC50 (nM) test values were determined for the compounds of this invention employing tritiated serotonin.

migraine sufferers = conditions: cited from earlier work

SMILES | IC50 (5-HT1D) | other results
CN1C[C@H](C(=O)N[C@]2(C)O[C@@]3(O)[C@@H]4CCCN4C(=O)[C@H](Cc4ccccc4)N3C2=O)C=C2c3cccc4[nH]cc(c34)C[C@H]21 [ergotamine] |  | dependence (migraine; extended use): cause dependence with extended use
COc1cncnc1N1CCN(CCCc2c[nH]c3ccc(F)cc23)CC1 [Example 64] | 1.5 nM | 
NCCc1c[nH]c2ccc(O)cc12 [serotonin] |  | effect in treating migraine attacks (migraine sufferers; in vivo): effective in treating migraine attacks; side-effects in migraine use (migraine sufferers; in vivo): restlessness, nausea, faintness, hyperpnea, facial flushing and parasthesias
COC(=O)[C@H]1[C@H]2C[C@@H]3c4[nH]c5cc(OC)ccc5c4CCN3C[C@H]2C[C@@H](OC(=O)c2cc(OC)c(OC)c(OC)c2)[C@@H]1OC [reserpine] |  | induction of headache in migraine sufferers (migraine sufferers; in vivo): induces a typical migraine-type headache in migraine sufferers; plasma serotonin (migraine sufferers; intramuscular injection): lowers plasma serotonin
CNS(=O)(=O)Cc1ccc2[nH]cc(CCCN3CCN(c4ccncc4OC)CC3)c2c1 [Example 61, 4-(5-Methoxy-4-pyridinyl)-1-[3-[5-[[(methylamino)sulfonyl]methyl]-1H-indol-3-yl]propyl]piperazine hydrochloride] | 1 nM | 
NCCc1c[nH]c2ccc(O)cc12 [serotonin creatinine sulfate] |  | alleviation of reserpine-induced headache (migraine sufferers; slow I.V. injection): This induced headache can be alleviated
COc1cnccc1N1CCN(CCCc2c[nH]c3ccccc23)CC1 [Example 62, 1-[3-(1H-indol-3-yl)propyl]-4-(3-methoxy-4-pyridinyl)piperazine dihydrochloride] | 10 nM | 
COc1cncnc1N1CCN(CCCc2c[nH]c3ccc(NS(C)(=O)=O)cc23)CC1C (centres unmarked) [Example 68] | 9.6 nM | 
COc1cncnc1N1CCN(CCCc2c[nH]c3ccc(N(C)S(C)(=O)=O)cc23)CC1C (centres unmarked) [Example 70] | 11 nM | 
CC[C@@H](CO)NC(=O)[C@@H]1C=C2c3cccc4c3c(cn4C)C[C@H]2N(C)C1 [methysergide] |  | side-effects (migraine; long term usage): severe use-limiting side-effects with long term usage
COc1cncnc1N1CCN(CCCc2c[nH]c3ccc(CS(N)(=O)=O)cc23)CC1 [Example 81] | 7.9 nM | 
COc1cncnc1N1CCN(CCCc2c[nH]c3ccc(CC(=O)NCc4ccccc4)cc23)CC1 [Example 84] | 4.6 nM | 
